Where two headings read alike, the source gives them in different places.
Tests used:
[1] = design: method as in PMID 23881998; conditions: FDA Adverse Event Reporting System 1999 to 2011; cited from earlier work
[2] = Plasma and cerebral concentrations of oseltamivir and OC after oral administration of OP; format: in vivo, C57BL/6 mice; conditions: OP 300 mg/kg p.o.; for AUC(0-t): C57BL/6, mouse, plasma, po, 300 mg/kg, read-out: AUC0–120 Plasma (converted); for mean brain-to-plasma ratio (BPR): mean AUCbrain / mean AUCplasma
Procedure: OP (300 mg/kg in 0.2 mL saline) was orally administered 4 h after the third injection of LPS. […] The brain tissue of mice was rapidly removed after the decapitation and rinsed in ice-cold PBS. Three to 9 mice were used at each sampling time point in each group.
Oseltamivir and OC levels in plasma and brain tissues were quantified by HPLC, as described in our previous study. Blood samples collected from the jugular vein were centrifuged to obtain plasma at 4°C (2,000 ×g, 15 min). Brain tissue samples were homogenized in 3.5 mL PBS/g tissue and centrifuged at 4°C (12,000 ×g, 10 min). Oseltamivir and OC were extracted from the resulting supernatant by solid-phase extraction (SPE) using Oasis MCX extraction cartridges (1 cc/30 mg, Waters, Milford, MA, USA) conditioned with 1 mL of methanol followed by 1 mL water. The supernatant sample (1 mL) was drawn through the cartridge and the cartridge was washed with 1 mL of 2% formic acid/water, followed by methanol and 0.005% ammonium hydroxide/methanol. The analytes were eluted with 3 mL of 5% ammonium hydroxide/methanol and evaporated to dryness under nitrogen at 40°C.
The HPLC system consisted of a pump (LC-10ADvp, Shimadzu Corp., Kyoto, Japan), degasser (DGU-12A, Shimadzu Corp.), column (Zorbax SB-CN 5 μm particle size, 4.6 × 250 mm, Agilent Technologies, CA, USA), column oven (CTO-10A, Shimadzu Corp.), and UV absorbance detector (SPD-10AV, Shimadzu Corp.). […] The column temperature was 50°C and the detector was operated at absorbance wavelength of 215 nm.

[3] = system: organic anion transporter (OAT) 3; design: method as in PMID 19029202; conditions: cited from earlier work
[4] = system: multidrug resistance protein (MRP) 4; design: method as in PMID 19029202; conditions: cited from earlier work
P-glycoprotein (P-gp) = system: P-glycoprotein (P-gp); design: method as in PMID 19029202; conditions: cited from earlier work
[5] = Kak group (LPS + kakkonto 125 mg/kg p.o.)
[6] = Mao group (LPS + maoto 125 mg/kg p.o.)

Structure (SMILES)	odds ratio, abnormal behavior [1]	odds ratio, delirium [1]	AUC(0-t) ([2]; Con group (LPS + saline p.o.)) [ng·h/mL]	AUC(0-t) [2, 5] [ng·h/mL]	AUC(0-t) [2, 6] [ng·h/mL]	AUC0–120 Brain ([2]; Con group (LPS + saline p.o.)) [min·μg/g brain]	mean brain-to-plasma ratio (BPR) ([2]; Con group) [μL/g brain]	AUC0–120 Brain [2, 5] [min·μg/g brain]	mean brain-to-plasma ratio (BPR) ([2]; Kak group) [μL/g brain]	AUC0–120 Brain [2, 6] [min·μg/g brain]	mean brain-to-plasma ratio (BPR) ([2]; Mao group) [μL/g brain]	substrate for OAT3 [3]	substrate for MRP4 [4]	substrate for efflux transporter P-gp (P-glycoprotein (P-gp))
CCOC(=O)C1=C[C@@H](OC(CC)CC)[C@H](NC(C)=O)[C@@H](N)C1 [Tamiflu, Oseltamivir phosphate]	29.35	13.50	–	–	–	–	–	–	–	–	–	–	–	–
CCC(CC)O[C@@H]1C=C(C(=O)O)C[C@H](N)[C@H]1NC(C)=O [OC, oseltamivir carboxylate]	–	–	12700	20000	14300	16.06	21.08	5.98	4.98	18.95	22.12	substrate	substrate	–
CCOC(=O)C1=C[C@@H](OC(CC)CC)[C@H](NC(C)=O)[C@@H](N)C1 [Oseltamivir, oseltamivir]	–	–	32500	84400	62500	79.35	40.70	200.21	39.52	119.92	31.98	–	–	substrate

From article PMC4350872, “The Inhibitory Effect of Kakkonto, Japanese Traditional (Kampo) Medicine, on Brain Penetration of Oseltamivir Carboxylate in Mice with Reduced Blood-Brain Barrier Function” (Evidence-based Complementary and Alternative Medicine : eCAM, 2015)
